Earlier results as cited in patent US20130079342A1, “HETEROCYCLIC COMPOUNDS AND THEIR USES” (priority 2011, published 2013).

What was measured:
[1] = tested on: rheumatoid arthritis model; details: in vivo
[2] = tested on: systemic lupus erythematosis model; details: in vivo
[3] = molecular target: T1, p110δ (Homo sapiens, UniProt O00329)
T1 sequence (O00329 1-1044): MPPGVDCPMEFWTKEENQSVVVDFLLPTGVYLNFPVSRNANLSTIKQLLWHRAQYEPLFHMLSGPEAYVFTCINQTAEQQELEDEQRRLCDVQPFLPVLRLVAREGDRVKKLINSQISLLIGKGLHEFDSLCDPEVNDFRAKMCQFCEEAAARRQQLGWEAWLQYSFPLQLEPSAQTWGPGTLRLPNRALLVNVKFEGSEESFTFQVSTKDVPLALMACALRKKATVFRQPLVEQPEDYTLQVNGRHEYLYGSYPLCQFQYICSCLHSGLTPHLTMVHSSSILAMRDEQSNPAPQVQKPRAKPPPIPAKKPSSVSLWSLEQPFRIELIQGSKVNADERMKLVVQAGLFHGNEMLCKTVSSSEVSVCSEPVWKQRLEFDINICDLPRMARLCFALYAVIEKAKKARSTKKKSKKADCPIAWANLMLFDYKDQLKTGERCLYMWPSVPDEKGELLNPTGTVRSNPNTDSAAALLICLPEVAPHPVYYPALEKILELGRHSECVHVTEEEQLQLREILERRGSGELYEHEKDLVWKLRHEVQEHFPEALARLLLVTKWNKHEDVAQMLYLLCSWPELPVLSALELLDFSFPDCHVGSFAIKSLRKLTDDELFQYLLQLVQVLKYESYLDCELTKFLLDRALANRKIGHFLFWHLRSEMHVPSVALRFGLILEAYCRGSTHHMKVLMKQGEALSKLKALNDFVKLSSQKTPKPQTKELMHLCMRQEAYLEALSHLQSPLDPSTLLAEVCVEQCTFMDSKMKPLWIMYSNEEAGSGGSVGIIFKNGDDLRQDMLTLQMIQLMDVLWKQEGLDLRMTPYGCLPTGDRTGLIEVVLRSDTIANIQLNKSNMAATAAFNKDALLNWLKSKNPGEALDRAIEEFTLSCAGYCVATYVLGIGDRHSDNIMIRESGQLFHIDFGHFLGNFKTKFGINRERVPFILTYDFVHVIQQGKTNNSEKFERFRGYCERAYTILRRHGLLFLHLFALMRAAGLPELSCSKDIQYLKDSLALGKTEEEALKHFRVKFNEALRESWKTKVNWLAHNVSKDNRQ

[4] = tested on: protein kinases
[5] = tested on: ovalbumin-induced airway inflammation

In the case of `O=C1NC(=O)/C(=C\c2ccc3nccnc3c2)S1` [AS 605240], the “efficacy in a mouse model of rheumatoid arthritis” value [1] is given as “efficacious” and the “onset of disease in a model of systemic lupus erythematosis” value [2] is given as “delay onset of disease”.
In the case of `Cc1ccccc1-n1c(Cn2cnc3c(N)ncnc32)nc2cccc(C)c2c1=O` [IC87114], the “inhibition of p110δ” value [3] is listed as “high nanomolar range (triple digit)”, the “activity against any protein kinases tested” value [4] is listed as “no activity” and the “inflammation and disease in a murine model of asthma” value [5] is listed as “significantly ameliorate inflammation and disease”.
